Test results as given in patent publication US20260217701A1, “SELECTIVE BET INHIBITORS AND USES THEREOF” (Tay Therapeutics Limited, priority 2022, published 2026).
Read-outs that look alike come from different tables or passages of the source.

Assays:
[1] = tested on: CXCL10; assay: CXCL10 release from IFN-γ stimulated human PBMCs (ELISA); type: cell-based; settings: for IC50: Homo sapiens, PBMC
Experimental: To analyze the selectivity of Compound A for CXCL10, human PBMCs were similarly thawed, and compounds were similarly prepared (final compound concentration ranged from 30,000 nM to 0.005 nM, with a final DMSO concentration per well of 0.3%). PBMCs were seeded into 96-well plates at a concentration of 2×10^5 cells/well (volume of 190 μL) and treated with various concentrations of Compound A for 1 hour. The PBMCs were then stimulated with IFN-γ (15 ng/ml final concentration in a volume of 10 μL), and supernatants were collected 24 hours after the exposure to IFN-γ. Levels of CXCL10 in the supernatant were then analyzed by ELISA (Invitrogen).

[2] = tested on: lupus; assay: SLE (lupus) model: proteinuria scores; type: in vivo, MRL/MpJ-Faslpr mice; settings: for End proteinuria score ± SEM: end of study (Week 19)
Experimental: Female MRL/MpJ-Faslpr mice (The Jackson Laboratory) were used to assess the efficacy of Compound A in treating lupus. Starting when animals were 10 weeks of age, protein concentration in urine was measured using urine dipsticks.
At the start of the study, each group in the study had two animals that were 9 weeks old, and all others were 10 weeks old. Dosing of all animals with the test compounds began when the older animals were 11 weeks old. […] […] Dosing was at a consistent time each dosing day throughout the study.
Compound A may be formulated as illustrated in Experimental Method A (see Table 2E.). […] A stock solution of Compound A in DMSO (stock solution concentration of Compound A of 40 mg/mL) was prepared and aliquots for weekly preparations were frozen at −20° C. On each preparation day, a stock solution aliquot was thawed and diluted with other vehicle components to the desired concentration. Formulated Compound A and vehicle were at room temperature for dosing.
The study began when the older animals were 11 weeks old, and concluded when the older animals were 19 weeks old. Body weight was recorded once a week, with the exception of two weight measurements taken the first week of the study (when the older animals were 11 weeks old). Proteinuria was measured in the urine of animals with urine dipsticks once a week, starting when the older animals were 10 weeks old. […] Blood samples were taken retro-orbitally at the start of the study to establish a baseline (15 animals, 3 per group), and when the older animals were 16 weeks (all animals) and when animals were 19 weeks (all animals) at the conclusion of the study. Blood urea nitrogen (BUN) was measured in all animals at study termination in blood samples. After blood collection, animals were euthanized, perfused with PBS, and the left kidneys were collected and weighed and fixed in 10% buffered formalin. Left kidneys were then processed to a formalin-fixed, paraffin-embedded (FFPE) block, and histology was analyzed in Periodic Acid-Schiff-stained sections (1 section per slide), using the criteria described in Alperovich et al., Lupus, 16:18-24 (2007). Right kidneys were weighed and snap-frozen at −80° C. Spleens were also collected and weighed. SLE in animals treated with a BET inhibitor and vehicle.

Cn1cc(-c2ccccc2)c(-c2cn(C)c(=O)c3[nH]c(-c4cnn(C(F)(F)F)c4)cc23)cc1=O [Compound A, 6-methyl-4-(1-methyl-2-oxo-5-phenyl-1,2-dihydropyridin-4-yl)-2-(1-(trifluoromethyl)-1H-pyrazol-4-yl)-1,6-dihydro-7H-pyrrolo[2,3-c]pyridin-7-one]
Percent Inhibition Relative to Control (CXCL10) ([1]; Compound Conc. 10 μM, Donors 1-6 two values each, Donors 7-10 three values each): 101.41% | IC50 ([1]; Average preliminary biomarker assay, read-out: CXCL10 IC50 Mean): 1000 nM | IC50 ([1]; Preliminary biomarker assay, Test Subject 1, read-out: CXCL 10 IC50): 1000 nM | IC50 ([1]; ELISA, read-out: Selectivity (IC50) CXCL10): 3640 nM | inhibition of CXCL10 ([1]; human PBMCs, IFN-γ, 24 hours): minimal inhibition | Proteinuria levels, lower than vehicle-treated group ([2]; 10 mg/kg, Week 19): about 74.8% | Proteinuria levels ([2]; 1, 3, 10 mg/kg): reduced proteinuria levels in a dose-dependent manner | Mean proteinuria score ([2]; Compound A 1 mg/kg PO QD, Week 10): 1.96 | Mean proteinuria score ([2]; Compound A 1 mg/kg PO QD, Week 11): 1.96 + | Mean proteinuria score ([2]; Compound A 1 mg/kg PO QD, Week 12): 2.29 | Mean proteinuria score ([2]; Compound A 1 mg/kg PO QD, Week 13): 2.57 | Mean proteinuria score ([2]; Compound A 1 mg/kg PO QD, Week 14): 2.79 | Mean proteinuria score ([2]; Compound A 1 mg/kg PO QD, Week 15): 3.07 | Mean proteinuria score ([2]; Compound A 1 mg/kg PO QD, Week 16): 2.82 | Mean proteinuria score ([2]; Compound A 1 mg/kg PO QD, Week 17): 3.07 | Mean proteinuria score ([2]; Compound A 1 mg/kg PO QD, Week 18): 3.11± | Mean proteinuria score ([2]; Compound A 1 mg/kg PO QD, Week 19): 3.36 | End proteinuria score ± SEM ([2]; Compound A 1 mg/kg PO QD): 3.36 ± 0.19 | Mean proteinuria score ([2]; Compound A 3 mg/kg PO QD, Week 10): 1.96 | Mean proteinuria score ([2]; Compound A 3 mg/kg PO QD, Week 11): 1.96 | Mean proteinuria score ([2]; Compound A 3 mg/kg PO QD, Week 12): 2.04 | Mean proteinuria score ([2]; Compound A 3 mg/kg PO QD, Week 13): 2.50 | Mean proteinuria score ([2]; Compound A 3 mg/kg PO QD, Week 14): 2.46 | Mean proteinuria score ([2]; Compound A 3 mg/kg PO QD, Week 15): 2.85 | Mean proteinuria score ([2]; Compound A 3 mg/kg PO QD, Week 16): 2.65 | Mean proteinuria score ([2]; Compound A 3 mg/kg PO QD, Week 17): 2.77 | Mean proteinuria score ([2]; Compound A 3 mg/kg PO QD, Week 18): 2.73 | Mean proteinuria score ([2]; Compound A 3 mg/kg PO QD, Week 19): 3.04 | End proteinuria score ± SEM ([2]; Compound A 3 mg/kg PO QD): 3.04 ± 0.24 | Mean proteinuria score ([2]; Compound A 10 mg/kg PO QD, Week 10): 1.96 | Mean proteinuria score ([2]; Compound A 10 mg/kg PO QD, Week 11): 1.96 | Mean proteinuria score ([2]; Compound A 10 mg/kg PO QD, Week 12): 2.04 | Mean proteinuria score ([2]; Compound A 10 mg/kg PO QD, Week 13): 2.21 | Mean proteinuria score ([2]; Compound A 10 mg/kg PO QD, Week 14): 2.07 | Mean proteinuria score ([2]; Compound A 10 mg/kg PO QD, Week 15): 2.43 | Mean proteinuria score ([2]; Compound A 10 mg/kg PO QD, Week 16): 2.32 | Mean proteinuria score ([2]; Compound A 10 mg/kg PO QD, Week 17): 2.32 | Mean proteinuria score ([2]; Compound A 10 mg/kg PO QD, Week 18): 2.00 | Mean proteinuria score ([2]; Compound A 10 mg/kg PO QD, Week 19): 2.32 | End proteinuria score ± SEM ([2]; Compound A 10 mg/kg PO QD): 2.32 ± 0.15
